Test results: US9360486B2, “Allergen fragments” (Biomay AG, priority 2007, dated 2016)
Several values for one entry are separate records, joined by “and”; a condition that tells them apart may be missing. Equal values may be shown once. Entries after “also recorded” stand apart in the source; their conditions may differ.

B1: alpha chain of Amb a 1.3 (modified version 1): recombinant modified (version 1) Amb a 1.3 alpha chain, aa 174-397, 224 amino acids; called alpha chain in Example 4 (protein)
alpha: VLPGGMIKSNDGPPILRQASDGDTINVAGSSQIWIDHCSLSKSFDGLVDVTLGSTHVTISNCKFTQQSKAILLGADDTHVQDKGMLATVAFNMFTDNVDQRMPRCRFGFFQVVNNNYDRWGTYAIGGSSAPTILCQGNRFLAPDDQIKKNVLARTGTGAAESMAWNWRSDKDLLENGAIFVTSGSDPVLTPVQSAGMIPAEPGEAAIKLTSSAGVLSCRPGAPC
modifications: Amb a 1 alpha chain
B2: beta-chain: recombinant modified (version 1) Amb a 1.3 beta chain, aa 26-173, 148 amino acids; called beta chain in Example 4 (protein)
beta: AEGVGEILPSVNETRSLQACEAYNIIDKCWRGKADWENNRQALADCAQGFAKGTYGGKWGDVYTVTSNLDDDVANPKEGTLRFAAAQNRPLWIIFKNDMVINLNQELVVNSDKTIDGRGVKVEIINGGLTLMNVKNIIIHNINIHDVK
modifications: Amb a 1 beta chain
B3: beta chain: beta chain of naturally processed Amb a 1, N-terminal part, 138 amino acids (protein)
chain: AEGVGEILPSVNETRSLQACEAYNIIDKCWRGKADWENNRQALADCAQGFAKGTYGGKWGDVYTVTSNLDDDVANPKEGTLRFAAAQNRPLWIIFKNDMVINLNQELVVNSDKTIDGRGVKVEIINGGLTLMNVKNIIIHNINIHDVKVLPGGMIKSNDGP
modifications: Amb a 1 beta chain
notes: beta chain of naturally processed Amb a 1, N-terminal part, 138 amino acids

Columns and labels:
[1] = test system: Amb a 1-specific T cell lines (TCL); assay: T cell epitope mapping of Amb a 1.3: proliferation (3H-thymidine uptake) of TCL stimulated with synthetic peptides; assay type: cell-based, human; settings: for No. positive patients SI > 3 / No. positive patients SI > 5 / % (positive patients SI > 3) / % (positive patients SI > 5): TCL from 48 ragweed pollen-allergic patients, peptide 5 μg/ml; for No. positive patients SI > 3 / No. positive patients SI > 5: 3H-thymidine uptake after 48 hrs; for No. positive patients SI > 3 / % (positive patients SI > 3): stimulation index > 3; for No. positive patients SI > 5 / % (positive patients SI > 5): stimulation index > 5
Procedure, shortened: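 Amb a 1-specific TCL from ragweed-allergic patients, raised with ragweed extract or rAmb a 1.3, stimulated 48 h with 121 overlapping 12-mer peptides plus one C-terminal 13-mer (9-residue overlap) at 5 μg/ml. Proliferation by 3H-thymidine uptake; SI against the mean cpm of the ten least stimulating peptides, epitope when SI ≥3.0.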

[2] = test system: IgE of sera from ragweed allergic patients; assay: Human IgE ELISA of purified alpha chain; assay type: binding; settings: modified (version 1) alpha chain of Amb a 1.3; 12 patients (FIG. 19)
Text: If a peptide of the invention is to be used as a diagnostic reagent, it is not necessary that the peptide or protein has reduced IgE binding activity compared to the native Amb a 1 allergen. IgE binding activity of peptides can be determined by, for example, an enzyme linked immunosorbent assay (ELISA) using, for example, sera obtained from an individual (i.e. an allergic individual) that has been previously exposed to the native Amb a 1. Briefly, a peptide to be tested is coated onto wells of a microtiter plate. After washing and blocking the wells, antibody solution consisting of the serum or plasma of an allergic individual who has been exposed to the peptide being tested or the protein from which it was derived is incubated in the wells. The plasma is generally depleted of IgG before incubation. However, the depletion is not necessary if highly specific anti IgE-antibodies are used. Furthermore, allergic individuals who have not undergone specific immunotherapy have in some cases almost no detectable IgG antibodies specific for the allergen in question. […] The amount of IgE binding is then quantified and compared to the amount of IgE bound by a purified native Amb a 1 protein. Alternatively, the binding activity of a peptide can be determined by Western blot analysis. […] After incubation with the labelled secondary antibody, the amount of IgE bound is then determined and quantified. […]

[3] = test system: Amb a 1-specific TCL and TCC; assay: Proliferation of Amb a 1-specific TCL and TCC with allergens and chains; assay type: cell-based, human; settings: modified (version 1) chains of Amb a 1.3
Protocol: Peripheral blood mononuclear cells (PBMC) were isolated from heparinized blood of allergic patients by Ficoll density gradient centrifugation. To generate allergen-specific T cell lines (TCL) and T cell clones (TCC), 1.5×10^6 PBMC were stimulated with optimal doses of ragweed or mugwort extract (4 μg/ml) or rAmb a 1.3 (10 μg/ml) in 24-well flat-bottomed culture plates (Costar, USA). After 5 days human rIL-2 (10 U/ml, Boehringer, Mannheim, Germany) were added and cultures were continued for additional 7 days. Then, T cell blasts were isolated by density centrifugation. The majority of T cell blasts was further expanded with IL-2 and irradiated PBMC. A small number of T cell blasts were used to establish monoclonal T cell cultures by limiting dilution: 0.3 T cells/well were seeded into 96 well round bottom plates (Nunclone) in the presence of 2×10^5 irradiated (60 Gy) PBMC, 0.25% v/v PHA (Gibco, USA) and rIL-2 (4 U/well) in the medium mentioned above. After 14-21 days, growing microcultures were expanded at weekly intervals with irradiated PBMC and rIL-2. The specificity of TCC was assessed in proliferation assays using irradiated allogeneic or HLA-matched PBMC or irradiated EBV-transformed allogeneic B-cells and 5 μg/ml Amb a 1.3. After 48 hours, cellular uptake of tritiated (^3H)-thymidine was performed to measure proliferation in counts per minute (cpm). When the stimulation index (SI; ratio between cpm obtained in cultures containing TCC plus autologous APC plus antigen, and cpm obtained in cultures containing TCC and APC alone) was >10, responses were considered as positive. Allergen-specific TCC were expanded by alternating turns of stimulation with autologous irradiated APC and allergen or with allogeneic feeder cells and rIL-2.
Proliferation and cytokine responses were determined.
When compared with the results of the T cell epitope recognition in Table 3, 45/46 patients (98%) would recognize one or more epitopes in the Amb a 1 alpha-chain. […]

[4] = test system: IgE of sera from ragweed pollen allergic patients; assay: SDS-PAGE IgE immunoblot with patients' sera; assay type: binding, human
Protocol: Membrane strips were incubated with sera from ragweed pollen allergic patients (lanes 1-29) or with serum from a non-allergic donor (lane C). Bound IgE was detected with ^125I-labeled goat anti-human IgE. Ragweed pollen-sensitized patients were recruited in Austria (lanes 1-13) or in Italy (lanes 14-29).
The proteins were analyzed via SDS-PAGE using 15% acrylamide gels and 0.1% Coomassie staining with a molecular weight standard RPN 756 (GE Healthcare Life Sciences). Sera from allergic patients were tested for positive IgE-reactivity. rAmb a 1 and rArt v 6 were separated on 15% (w/w) polyacrylamide gels and electroblotted onto a PVDF membrane. After blocking the non-specific protein binding sites with Blocking buffer (per L: 7.5 g Na2HPO4, 1 g NaH2PO4, 5 g BSA and 5 mL Tween 20), the membrane was incubated with patients' sera (diluted 1:10 in Blocking buffer) for more than 6 hours at room temperature. The membrane was washed for at least 30 minutes with Blocking buffer before it was incubated with radiolabeled [^125 I]-anti human IgE (RAST, 5 µCi, MedPro) diluted in Blocking buffer (1:40) overnight at room temperature. After a second 30-minute wash, the membrane was placed onto an imaging plate. The screen was exposed for at least 24 hours and developed using a PhosphoImager Bas-1800 II scanner for detection and the instrument's supporting software (Fujifilm).
nAmb a 1 undergoes spontaneously proteolysis during purification and it is cleaved into two chains, alpha and beta chain, respectively.

Molecule | reactivity with T cells isolated from allergic individuals [1] | No. positive patients SI > 3 [1] | No. positive patients SI > 5 [1] | % (positive patients SI > 3) [1] [%] | % (positive patients SI > 5) [1] [%] | also measured
VKVLPGGMIKSN (Amb a 1 fragment) [Peptide 50] | reactivity with T cells | 5 | 4 | 10.4 | 8.3 | 
VLTPVQSAGMIP (Amb a 1 fragment) [Peptide 113] |  | 4 | 1 | 8.3 | 2.1 | 
VNNNYDRWGTYA (Amb a 1 fragment) [Peptide 88] | reactivity with T cells | 10 | 4 | 20.8 | 8.3 | 
VNNNYDRWGTYAIGG (Amb a 1 fragment) [Peptide 88-89] | reactivity with T cells |  |  |  |  | T cell activating region recognized by % of patients ([1]; classes of prevalence referring to SI>5, 48 TCL): recognized by 12.5%
VQDKGMLATVAF (Amb a 1 fragment) [Peptide 77] | reactivity with T cells | 7 | 4 | 14.6 | 8.3 | 
VTLGSTHVTISN (Amb a 1 fragment) [Peptide 67] | reactivity with T cells | 6 | 2 | 12.5 | 4.2 | 
VVNSDKTIDGRG (Amb a 1 fragment) [Peptide 37] | reactivity with T cells | 14 | 9 | 29.2 | 18.8 | 
WENNRQALADCA (Amb a 1 fragment) [Peptide 13] |  | 2 | 0 | 4.2 | 0.0 | 
WRGKADWENNRQ (Amb a 1 fragment) [Peptide 11] |  | 4 | 2 | 8.3 | 4.2 | 
WRSDKDLLENGA (Amb a 1 fragment) [Peptide 106] |  | 3 | 1 | 6.3 | 2.1 | 
YTVTSNLDDDVA (Amb a 1 fragment) [Peptide 22] |  | 4 | 4 | 8.3 | 8.3 | 
B1 |  |  |  |  |  | IgE-binding activity in vitro (ELISA) [2]: low/no IgE-binding activity; reaction of 2 TCC specific for epitopes within Amb a 1-alpha [3]: reacted
B2 |  |  |  |  |  | proliferation, % of the response to Amb a 1 ([3]; 2 TCL with strong reactivity to Amb a 1 (FIG. 20)): 38% and 19%
B3 |  |  |  |  |  | IgE reactivity of the Amb a 1 chains [4]: strongly recognized; also recorded: contains most of the IgE epitopes of Amb a 1; % of patients whose IgE recognized the chain ([4]; chains of nAmb a 1, sera from Italy, Canada and Austria (FIG. 9)): 90%
